Test results taken from patent US20210198284A1, “GOLD COMPOSITIONS AND METHODS OF USE THEREOF” (THE UNIVERSITY OF MASSACHUSETTS, priority 2018, published 2021).

Tests used:
[1] = Log P determination (n-octanol/water, FAAS); conditions: n-octanol/water, gold by FAAS; for logP: Log P
Protocol: Log P Determination: Calibration curves. Milli-Q Water (150 mL) was added to n-octanol (150 mL), and the mixture was stirred for 3 days to allow both phases to reach saturation. The gold standard solution (1000 ppm Au in hydrochloric acid, Fisher Scientific) was diluted to 1, 2, 3, 4 and 5 ppm with n-octanol-saturated water, and the absorbance of the resulting solutions was measured by flame atomic absorption spectroscopy (FAAS, Agilent Technology 200 Series AA, equipped with a gold HC Lamp-Au coded). The absorbance data were plotted against Au concentration, and the resulting calibration curve was used for determining the concentration of the analogs in the aqueous phase.
To construct the standard calibration curve of the Au concentration in the n-octanol phase, compound 27 was used. The Au concentration in compound 27 was first calibrated against the aqueous gold standard. For this, 0.440 mg of compound 27 was weighed on a Sartorius MC5 microbalance, and then added to 22 mL of n-octanol-saturated water. […] For this, solutions of varying concentrations (0.99, 2.47, 4.94, 5.93, 9.88 ppm) of compound 27 in water-saturated n-octanol were prepared. The absorbance was measured by FAAS, and the data were plotted against the Au concentration to provide a second calibration curve, which was used for determining the Au concentration of the analogs in the n-octanol phase.
Determination of Au concentrations: Method 1. 0.5 to 1 mg of compound was weighed into a 2-mL Eppendorf tube containing 2 mL of n-octanol-saturated water. After shaking for about 4 h, the solution was centrifuged at 6000 rpm for 3 min. 1 mL of the supernatant was transferred to a new tube containing 1 mL of water-saturated n-octanol, and the mixture was shaken for 1 h. After centrifugation at 6000 rpm for 5 min, the two layers were collected and the gold concentration in each layer was determined by FAAS by comparing the absorbance to the first and second calibration curves.
Determination of Au concentrations: Method 2. […] For Method 2, 0.6 to 1 mg of compound was weighed into a 2-mL Eppendorf tube containing 1 mL of n-octanol-saturated water and 1 mL of water-saturated n-octanol. After shaking for 3-4 h, the mixture was centrifuged, and all liquid was transferred to a 15-mL tube. The liquid was then diluted with 2 mL of n-octanol-saturated saturated water and 2 mL of water-saturated n-octanol, and the mixture was shaken for another hour. After centrifugation at 6000 rpm for 5 min, the two layers were collected and the gold concentration in each layer was determined by FAAS by comparing the absorbance to the first and second calibration curves.
Log P was calculated as follows: log P=log[compound]oct/[compound]water

[2] = tested on: A. baumannii NCTC 13420; assay: Antibacterial assay, MIC/MBC by broth microdilution (CLSI); type: cell-based; conditions: A. baumannii NCTC 13420; repeated twice, a/b = both values
Protocol: (§1) Antibacterial assay. The minimum inhibitory concentrations (MICs) and the minimum bactericidal concentrations (MBCs) were determined by the broth microdilution method as described in the CLSI (The Clinical & Laboratory Standards Institute) guidelines (Performance standards for antimicrobial susceptibility testing: Clinical and Laboratory Standards Institute (CLSI), Twenty-Fifth informational supplement. Document M100-S25: […]; Vol. 35). All bacterial strains were cultured in cation-adjusted Muller Hinton broth (CAMHB) up to log-phase and then diluted to give a concentration of 7.5×10^5 CFU/mL. The gold complexes were dissolved in DMSO or water as stock solutions, which were then serially diluted two-fold in a 96-well plate. Aliquots (100 μL) of the dilutions were mixed with equal volumes of the bacterium suspension in a 96 well plate (in triplicates). The plates were incubated at 37° C. for 18 h without shaking. Negative and positive controls were included in the same well plate with wells having the culture medium only and bacteria solution only, respectively. The sample concentration that gave inhibition values above 90% were determined as MICs as calculated from absorbance values at 600 nm (OD600) obtained using a Tecan SPARK IOM plate reader. To determine minimum bactericidal concentrations (MBCs), agar plates were treated with 5 μL sample solutions from each well, and then incubated at 37° C. for 18 h without shaking. The sample concentration that gave no colony formed on agar plates were determined as MBCs.
(§2) Selection of bacteria. The ESKAPE pathogens were chosen as they are responsible for the majority of nosocomial infections and also as they provide a good scope of strains including both Gram-negative and Gram-positive species. A. baumannii NCTC 13420 was originally identified in 24 hospitals in the UK during 2000-2003, which produced OXA-51-like β-lactamases, and was highly resistant to ampicillin, piperacillin, piperacillin/tazobactam, ceftazidime, cefotaxime, gentamicin and ciprofloxacin. P. aeruginosa NCTC13437 produces VIM-10 metallo-carbapenemase and VEB-1 (Vietnamese extended-spectrum beta-lactamase). Wild-type strain E. cloacae NCTC 13405 (originally named E. cloacae 684) was isolated from patients at the London Hospital during 1982-1983. This strain has inducible AmpC β-lactamase and is resistant to ampicillin/amoxicillin and cefoxitin. K. pneumoniae ATCC 700603 was isolated from the urine of a hospitalized patient in Richmond, Va. in 1994, and it produces SHV-18 extended spectrum beta-lactamase (ESBL). JE2 (USA300) is a methicillin-resistant S. aureus (MRSA) strain, also resistant to beta-lactams, ciprofloxacin, tetracycline, macrolides (erythromycin), lincosamides (clindamycin), streptogramin B, and mupirocin. E. faecium ATCC 700221, a positive fecal VRE (vancomycin-resistant enterococcus) isolate, is resistant to several antibiotics including vancomycin and teicoplanin. The quality control strain, Gram-negative E. coli ATCC 25922, was included in all assays and validated with ciprofloxacin and […].

[3] = tested on: E. coli ATCC 25922; assay: as above; type: cell-based; conditions: repeated twice, a/b = both values
Protocol: as §1, §2

[4] = tested on: E. cloacae NCTC 13405; assay: as above; type: cell-based; conditions: for activity in words: E. cloacae
Protocol: as §1, §2

[5] = tested on: S. aureus JE2 (USA300); assay: as above; type: cell-based; conditions: for MIC values in words: S. aureus
Protocol: as §1, §2

[6] = tested on: P. aeruginosa NCTC 13437; assay: as above; type: cell-based; conditions: P. aeruginosa
Protocol: as §1, §2

[7] = tested on: K. pneumoniae ATCC 700603; assay: as above; type: cell-based; conditions: K. pneumoniae ATCC 700603; repeated twice, a/b = both values
Protocol: as §1, §2

[8] = tested on: E. faecalis ATCC 700221; assay: as above; type: cell-based; conditions: repeated twice, a/b = both values
Protocol: as §1, §2

Question: With `CC[PH](CC)(CC)[Au][S][C@@H]1OC(COC(C)=O)[C@@H](OC(C)=O)[C@H](OC(C)=O)C1NC(C)=O` (stereo partly drawn) [Compound 3, (3,4,6-Tri-O-acetyl-2-N-acetyl-1-thio-β-D-glucopyranosato) (triethylphosphine) gold (1)] as the compound, how does the logP [1] read?
Answer: Its logP is 0.26.

Question: For `CC[P+](CC)(CC)[Au-][S]c1ccc(SCC(=O)NC2[C@H](OC(C)=O)OC(COC(C)=O)[C@@H](OC(C)=O)[C@@H]2OC(C)=O)cc1` (stereo partly shown) [Compound 8], which MIC [2] is on record?
Answer: Its MIC is 76/19.

Question: What about the logP [1] of the same compound?
Answer: Its logP is -0.36.

Question: For `CC[P+](CC)(CC)[Au-][S][C@@H]1OC(CO)[C@@H](O)[C@H](O)C1NC(C)=O` (stereo partly drawn) [Compound 12, (2-Acetamido-2-deoxy-1-thio-β-D-glucopyranosato)(triethylphosphine) gold(I)], which MIC [3] is on record?
Answer: The MIC was 7/4.

Question: And the logP [1]?
Answer: The logP was -0.89.

Question: What does the source list for `CC[P+](CC)(CC)[Au-][S]c1ccc([N+](=O)[O-])cc1` [Compound 22, (4-Nitrobenzenethiolato)(triethylphosphine) gold(I)]?
Answer: activity in words [4]: completely diminished the activity; MIC values in words [5]: nanomolar range; logP [1]: > 3; Log P [1]: >3.28

Question: Which activity in words [4] does the source give for `CC[P+](CC)(CC)[Au-][S]c1ccc(C(F)(F)F)cc1` [Compound 23, (4-(Trifluromethyl)benzenethiolato)(triethylphosphine) gold(I)] here?
Answer: The activity in words was “completely diminished the activity”.

Question: What about the logP [1] of the same compound?
Answer: The logP was > 3.

Question: And the “Log P” value [1]?
Answer: The value was >3.18.

Question: With `CC[P+](CC)(CC)[Au-][S]CCO` [Compound 24, (2-Mercaptoethanolato)(triethylphosphine) gold(I)] as the compound, how does the MIC ([4]; E. cloacae NCTC 13405, repeated twice, a/b = both values) read?
Answer: Its MIC is 5/10.

Question: What about the activity in words [6] of the same compound?
Answer: The activity in words was “showed activity”.

Question: What about the logP [1] of the same compound?
Answer: The logP was 1.19.

Question: Which “MIC values in words” value [5] does the source give for `CC[P+](CC)(CC)[Au-][S]CC(=O)OC` [Compound 25, (Methyl mercaptoacetatato) (triethylphosphine) gold(I)] here?
Answer: The value was “nanomolar range”.

Question: And the logP [1]?
Answer: The logP was 1.75.

Question: With `CC[P+](CC)(CC)[Au-][S]CC(F)(F)F` [Compound 26, (2,2,2-Trifluoroethanethiolato)(triethylphosphine) gold(I)] as the compound, how does the “MIC values in words” value [5] read?
Answer: The value was “nanomolar range”.

Question: What about the logP [1] of the same compound?
Answer: Its logP is 2.08.

Question: With `C[P+](C)(C)[Au-][Cl]` [Compound 28, (Trimethylphosphine) gold chloride] as the compound, how does the MIC [2] read?
Answer: Its MIC is 7/13.

Question: What about the MIC [7] of the same compound?
Answer: The MIC was 7/13.

Question: And the activity in words [6]?
Answer: The activity in words was “showed activity”.

Question: What about the logP [1] of the same compound?
Answer: Its logP is 0.16.

Question: For `Fc1ccc([P+]([Au-][Cl])(c2ccc(F)cc2)c2ccc(F)cc2)cc1` [Compound 33, (Tris(4-fluorphenyl)phosphine) gold chloride], which MIC [8] is on record?
Answer: The MIC was 2/4.

Question: And the logP [1]?
Answer: Its logP is > 4.04.

Question: Which MIC [2] does the source give for `CC(=O)OCC1O[C@@H]([S][Au-][P+](C)(C)C)C(OC(C)=O)[C@@H](OC(C)=O)[C@@H]1OC(C)=O` (stereo partly drawn) [Compound 35, (2,3,4,6-Tetra-O-acetyl-1-thio-β-D-glucopyranosato)(trimethylphosphine) gold(I)] here?
Answer: Its MIC is 6/13.

Question: And the activity in words [6]?
Answer: Its activity in words is “four-fold improvement in activity over 15”.

Question: And the logP [1]?
Answer: The logP was 0.35.

Question: Which MIC [8] does the source give for `CCCC[P+](CCCC)(CCCC)[Au-][S][C@@H]1OC(COC(C)=O)[C@@H](OC(C)=O)[C@H](OC(C)=O)C1OC(C)=O` (stereo partly drawn) [Compound 36, (2,3,4,6-Tetra-O-acetyl-1-thio-β-D-glucopyranosato)(tri-n-butylphosphine) gold(I)] here?
Answer: Its MIC is 3/5.

Question: And the logP [1]?
Answer: The logP was > 4.32.

Question: With `CC(=O)OCC1O[C@@H]([S][Au-][P+](c2ccccc2)(c2ccccc2)c2ccccc2)C(OC(C)=O)[C@@H](OC(C)=O)[C@@H]1OC(C)=O` (stereo partly drawn) [Compound 37, (2,3,4,6-Tetra-O-acetyl-1-thio-β-D-glucopyranosato)(triphenylphosphine) gold(I)] as the compound, how does the MIC ([5]; S. aureus JE2 (USA300), repeated twice, a/b = both values) read?
Answer: The MIC was 1/2.

Question: And the logP [1]?
Answer: The logP was > 3.87.

Question: With `COc1ccc([P+]([Au-][S][C@@H]2OC(COC(C)=O)[C@@H](OC(C)=O)[C@H](OC(C)=O)C2OC(C)=O)(c2ccc(OC)cc2)c2ccc(OC)cc2)cc1` (stereo partly drawn) [Compound 38, (2,3,4,6-Tetra-O-acetyl-1-thio-β-D-glucopyranosato)(tris(4-methoxyphenyl)phosphine) gold(I)] as the compound, how does the MIC [8] read?
Answer: The MIC was 2/4.

Question: What about the logP [1] of the same compound?
Answer: Its logP is > 3.03.

Question: Which MIC [8] does the source give for `CC(=O)OCC1O[C@@H]([S][Au-][P+](c2ccc(F)cc2)(c2ccc(F)cc2)c2ccc(F)cc2)C(OC(C)=O)[C@@H](OC(C)=O)[C@@H]1OC(C)=O` (stereo partly drawn) [Compound 39, (2,3,4,6-Tetra-O-acetyl-1-thio-β-D-glucopyranosato)(tris(4-fluorophenyl)phosphine)gold(I)] here?
Answer: The MIC was 2/5.

Question: What about the logP [1] of the same compound?
Answer: The logP was > 3.04.

Question: With `CC(=O)OCC1O[C@@H]([S][Au-][P+](c2ccc(C(F)(F)F)cc2)(c2ccc(C(F)(F)F)cc2)c2ccc(C(F)(F)F)cc2)C(OC(C)=O)[C@@H](OC(C)=O)[C@@H]1OC(C)=O` (stereo partly drawn) [Compound 40, (2,3,4,6-Tetra-O-acetyl-1-thio-β-D-glucopyranosato)(tris(4-(trifluoromethyl)phenylphosphine)) gold(I)] as the compound, how does the logP [1] read?
Answer: The logP was > 3.55.
